From ChEMBL document CHEMBL5120764, “Isarubrolone C Promotes Autophagic Degradation of Virus Proteins via Activating ATG10S in HepG2 Cells” (J Nat Prod, 2022)
Active and inactive are the calls of the source.

Tests used:
Format in all cases: functional, cell-based
[1] = system: HepG2; assay: Induction of autophagy in human HepG2 cells transfected with HBx assessed as decrease in HBx protein level upto 10 uM and measured after 6 hrs by western blot analysis; details: DDE = dose-dependent effect
[2] = system: HepG2; assay: Upregulation of HCV-CORE in human HepG2 cells transfected with HCV sub-replicon and gene knockdown by IL28A morpholinos at 10 uM incubated for 24 hrs by western blot analysis
[3] = system: HepG2; assay: Downregulation of HCV-NS5B in human HepG2 cells transfected with HCV-subreplicon upto 10 uM incubated for 24 hrs by western blot analysis
[4] = system: HepG2; assay: Induction of autophagy in human HepG2 cells transfected with HCV sub-replicon assessed as decrease in HCV-NS5B protein level upto 10 uM and measured after 6 hrs by western blot analysis; details: DDE = dose-dependent effect
[5] = system: HepG2; assay: Upregulation of P62 in human HepG2 cells transfected with HBx and gene knockdown by IL28A morpholinos at 10 uM incubated for 24 hrs by western blot analysis
[6] = system: HepG2; assay: Effect on ZIKV-NS5 degradation in human HepG2 cells transfected with ZIKV-NS5 at 10 uM pretreated with proteosome inhibitor MG132 for 12 hrs followed by compound addition and measured after 24 hrs by western blot analysis
[7] = system: HepG2; assay: Upregulation of P62 in human HepG2 cells transfected with HCV sub-replicon and gene knockdown by IL28A morpholinos at 10 uM incubated for 24 hrs by western blot analysis
[8] = system: HepG2; assay: Induction of autophagy in human HepG2 cells assessed as increase in IL28A protein level upto 10 uM and measured after 6 hrs by western blot analysis; details: DDE = dose-dependent effect
[9] = system: HepG2; assay: Upregulation of endogenous ATG10S activated co-localisation of HCV-NS5B with LAMP2 in human HepG2 cells co-transfected with HCV sub-replicon and ATG10-misMO by cellular immunofluorescence assay
[10] = system: HepG2; assay: Upregulation of IL28A mRNA expression level in human HepG2 cells transfected with ZIKV-NS5 upto 10 uM by qRT-PCR analysis; details: DDE = dose-dependent effect
[11] = system: HepG2; assay: Upregulation of P62 in human HepG2 cells transfected with ZIKV-NS5 and gene knockdown by IL28A morpholinos at 10 uM incubated for 24 hrs by western blot analysis
[12] = system: HepG2; assay: Upregulation of endogenous ATG10S activated co-localisation of HIV-RT with LC3B in human HepG2 cells co-transfected with HIV-RT and ATG10-misMO by cellular immunofluorescence assay
[13] = system: HepG2; assay: Upregulation of endogenous ATG10S activated co-localisation of ZIKV-NS5 with LAMP2 in human HepG2 cells co-transfected with ZIKV-NS5 and ATG10-misMO by cellular immunofluorescence assay
[14] = system: HepG2; assay: Induction of autophagy in human HepG2 cells transfected with HIV-RT assessed as increase in HIV-RT-P62 interaction level at 10 uM incubated for 24 hrs in presence of anti-Flag antibodies by co-immunoprecipitation assay
[15] = system: HepG2; assay: Upregulation of P62 in human HepG2 cells transfected with HIV-RT and gene knockdown by IL28A morpholinos at 10 uM incubated for 24 hrs by western blot analysis
[16] = system: HepG2; assay: Induction of autophagy in human HepG2 cells transfected with ZIKV-NS5 and gene knockdown by IL28A morpholinos assessed as LC3B and LAMP2 interaction at 10 uM incubated for 24 hrs in presence of anti-LC3B antibodies by co-immunoprecipitation assay
[17] = system: HepG2; assay: Induction of autophagy in human HepG2 cells transfected with ZIKV-NS5 assessed as increase in ZIKV-NS5-LAMP2 interaction level at 10 uM incubated for 24 hrs in presence of anti-Flag antibodies by co-immunoprecipitation assay
[18] = system: HepG2; assay: Downregulation of HBVx in human HepG2 cells transfected with HBVx upto 10 uM incubated for 24 hrs by western blot analysis
[19] = system: HepG2; assay: Downregulation of ZIKV-NS5 in human HepG2 cells co-transfected with ZIKV-NS5 and ATG10-misMO upto 10 uM incubated for 24 hrs by western blot analysis
[20] = system: HepG2; assay: Upregulation of ATG10/ATG10S mRNA level in human HepG2 cells transfected with HIV-RT upto 10 uM by RT-PCR analysis; details: DDE = dose-dependent effect
[21] = system: HepG2; assay: Effect on HIV-RT degradation in human HepG2 cells transfected with HIV-RT at 10 uM pretreated with proteosome inhibitor MG132 for 12 hrs followed by compound addition and measured after 24 hrs by western blot analysis
[22] = system: HepG2; assay: Effect on HCV-CORE degradation in human HepG2 cells transfected with HCV sub-replicon at 10 uM pretreated with proteosome inhibitor MG132 for 12 hrs followed by compound addition and measured after 24 hrs by western blot analysis
[23] = system: HepG2; assay: Upregulation of ZIKV-NS5 in human HepG2 cells transfected with ZIKV-NS5 and gene knockdown by IL28A morpholinos at 10 uM incubated for 24 hrs by western blot analysis
[24] = system: HepG2; assay: Upregulation of endogenous ATG10S activated co-localisation of HCV-NS5B with LC3B in human HepG2 cells co-transfected with HCV sub-replicon and ATG10-misMO by cellular immunofluorescence assay
[25] = system: HepG2; assay: Induction of autophagy in human HepG2 cells transfected with HIV-RT assessed as decrease in HIV-RT protein level upto 10 uM and measured after 6 hrs by western blot analysis; details: DDE = dose-dependent effect
[26] = system: HepG2; assay: Effect on P62 degradation in human HepG2 cells at 10 uM pretreated with proteosome inhibitor MG132 for 12 hrs followed by compound addition and measured after 24 hrs by western blot analysis
[27] = system: HepG2; assay: Induction of autophagy in human HepG2 cells transfected with HCV subgenomic replicon assessed as HCV-CORE/LAMP2 combination at 10 uM incubated for 24 hrs in presence of anti-LC3B antibodies by co-immunoprecipitation assay
[28] = system: HepG2; assay: Induction of autophagy in human HepG2 cells transfected with HCV subgenomic replicon assessed as HCV-CORE/P62 combination at 10 uM incubated for 24 hrs in presence of anti-LC3B antibodies by co-immunoprecipitation assay
[29] = system: HepG2; assay: Induction of autophagy in human HepG2 cells transfected with HCV subgenomic replicon and gene knockdown by IL28A morpholinos assessed as LC3B and LAMP2 interaction at 10 uM incubated for 24 hrs in presence of anti-LC3B antibodies by co-immunoprecipitation assay
[30] = system: HepG2; assay: Upregulation of endogenous ATG10S activated co-localisation of ZIKV-NS5 with LC3B in human HepG2 cells co-transfected with ZIKV-NS5 and ATG10-sMO by cellular immunofluorescence assay
[31] = system: HepG2; assay: Upregulation of endogenous ATG10S activated co-localisation of HBx with LAMP2 in human HepG2 cells co-transfected with HBx and ATG10-misMO by cellular immunofluorescence assay
[32] = system: HepG2; assay: Downregulation of HBVx in human HepG2 cells co-transfected with HBVx and ATG10-misMO upto 10 uM incubated for 24 hrs by western blot analysis

Measured: Activity

CC[C@@H](O)c1nc(C)cc2c1C(=O)c1cc(=O)c3c(c(O)c1-2)O[C@@H]1O[C@H](C)[C@@H](OC)[C@@H](O)[C@]31O
active: [1] Dde | [2] | [3] | [4] Dde | [5] | [6] | [7] | [8] Dde | [9] | [10] Dde | [11] | [12] | [13] | [14] | [15] | [16] | [17] | [18] | [19] | [20] Dde | [21] | [22] | [23] | [24] | [25] Dde | [26] | [27] | [28] | [29] | [30] | [31] | [32]
